Data as given in the supplement of paper PMC10307832.

Key:
Assay in all cases: relative viability (nuclei count vs DMSO), 5 days (fraction); higher = more cells survive
Pazopanib + Luminespib = compound: Cc1ccc(Nc2nccc(N(C)c3ccc4c(C)n(C)nc4c3)n2)cc1S(N)(=O)=O [Pazopanib] + CCNC(=O)c1noc(-c2cc(C(C)C)c(O)cc2O)c1-c1ccc(CN2CCOCC2)cc1 [Luminespib] (partner 0.01 µM)
How it was run: (§1)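 Lung cancer cell lines in 1536-well plates got either a single drug or a fixed anchor-drug dose together with five library-drug doses (not always all listed) in √10 steps, by pin tool, on the day after seeding. Nuclei were counted after 5 days, and relative viability is the treated-to-vehicle ratio of nuclei counts. Values are medians of duplicate plates.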

Pazopanib + Phenformin = compound: Cc1ccc(Nc2nccc(N(C)c3ccc4c(C)n(C)nc4c3)n2)cc1S(N)(=O)=O [Pazopanib] + N=C(N)NC(=N)NCCc1ccccc1 [Phenformin] (partner 250 µM)
How it was run: as §1

Ponatinib + Lapatinib = compound: Cc1ccc(C(=O)Nc2ccc(CN3CCN(C)CC3)c(C(F)(F)F)c2)cc1C#Cc1cnc2cccnn12 [Ponatinib] + CS(=O)(=O)CCNCc1ccc(-c2ccc3ncnc(Nc4ccc(OCc5cccc(F)c5)c(Cl)c4)c3c2)o1 [Lapatinib] (partner 2 µM)
How it was run: as §1

Pazopanib + Palbociclib = compound: Cc1ccc(Nc2nccc(N(C)c3ccc4c(C)n(C)nc4c3)n2)cc1S(N)(=O)=O [Pazopanib] + CC(=O)c1c(C)c2cnc(Nc3ccc(N4CCNCC4)cn3)nc2n(C2CCCC2)c1=O [Palbociclib] (partner 0.5 µM)
How it was run: as §1

| Cell Line | relative viability (Pazopanib + Luminespib; first compound 0.01 µM) | relative viability (Pazopanib + Luminespib; first compound 0.03162 µM) | relative viability (Pazopanib + Luminespib; first compound 0.1 µM) | relative viability (Pazopanib + Luminespib; first compound 0.3162 µM) | relative viability (Pazopanib + Luminespib; first compound 1 µM) | relative viability (Pazopanib + Phenformin; first compound 0.01 µM) | relative viability (Pazopanib + Phenformin; first compound 0.03162 µM) | relative viability (Pazopanib + Phenformin; first compound 0.1 µM) | relative viability (Pazopanib + Phenformin; first compound 0.3162 µM) | relative viability (Pazopanib + Phenformin; first compound 1 µM) | relative viability (Ponatinib + Lapatinib; first compound 0.002 µM) | relative viability (Ponatinib + Lapatinib; first compound 0.006325 µM) | relative viability (Ponatinib + Lapatinib; first compound 0.06325 µM) | relative viability (Ponatinib + Lapatinib; first compound 0.2 µM) | relative viability (Pazopanib + Palbociclib; first compound 0.01 µM) | relative viability (Pazopanib + Palbociclib; first compound 0.03162 µM) | relative viability (Pazopanib + Palbociclib; first compound 0.1 µM) | relative viability (Pazopanib + Palbociclib; first compound 0.3162 µM) | relative viability (Pazopanib + Palbociclib; first compound 1 µM) |
| --- | --- | --- | --- | --- | --- | --- | --- | --- | --- | --- | --- | --- | --- | --- | --- | --- | --- | --- | --- |
| LOU-NH91 | 0.335 | 0.336 | 0.331 | 0.324 | 0.275 | 0.635 | 0.731 | 0.605 | 0.751 | 0.731 | 0.717 | 0.788 | 0.755 | 0.709 | 0.511 | 0.502 | 0.564 | 0.538 | 0.547 |
| NCI-H2228 | 0.142 | 0.135 | 0.153 | 0.155 | 0.177 | 0.366 | 0.366 | 0.324 | 0.443 | 0.313 | 1.07 | 1.51 | 1.15 | 1.13 | 0.892 | 0.75 | 0.848 | 0.756 | 0.779 |
| PC-3 [JPC-3] | 0.784 | 0.59 | 0.65 | 0.69 | 0.65 | 0.52 | 0.465 | 0.513 | 0.472 | 0.478 | 0.43 | 0.45 | 0.492 | 0.502 | – | 0.556 | 0.341 | 0.522 | 0.519 |
| NCI-H1437 | 1.25 | 1.16 | 1.13 | 1.11 | 1.07 | 0.355 | 0.312 | 0.34 | 0.303 | 0.338 | 0.742 | 0.848 | 0.885 | 0.758 | 0.327 | 0.313 | 0.284 | 0.338 | 0.313 |
| NCI-H520 | 0.234 | 0.235 | 0.227 | 0.218 | 0.214 | 0.386 | 0.545 | 0.507 | 0.705 | 0.537 | 0.725 | 0.801 | 0.688 | 0.531 | 0.185 | 0.23 | 0.244 | 0.224 | 0.188 |
| NCI-H1666 | 1.03 | 1.08 | 0.99 | 1.06 | 1.06 | 0.576 | 0.581 | 0.575 | 0.613 | 0.67 | 0.619 | 0.666 | 0.796 | 0.773 | 0.636 | 0.604 | 0.607 | 0.694 | 0.667 |
| NCI-H1651 | 0.853 | 0.869 | 0.785 | 0.741 | 0.878 | 0.359 | 0.351 | 0.343 | 0.373 | 0.379 | 0.724 | 0.955 | 0.896 | 0.756 | 0.51 | 0.555 | 0.523 | 0.489 | 0.555 |
| NCI-H1755 | 0.422 | 0.42 | 0.261 | 0.448 | 0.527 | 0.552 | 0.636 | 0.673 | 0.65 | 0.671 | 0.977 | 1.08 | 1.06 | 0.943 | 0.423 | 0.454 | 0.47 | 0.457 | 0.467 |
| NCI-H727 | 0.346 | 0.634 | 0.381 | 0.266 | 0.262 | 0.455 | 0.522 | 0.57 | 0.584 | 0.682 | 0.794 | 0.825 | 1.11 | 0.77 | 0.662 | – | 0.634 | 0.597 | 0.718 |
| HARA | 0.548 | 0.704 | 1.09 | 0.76 | 0.839 | 0.43 | 0.363 | 0.486 | 0.467 | 0.479 | 0.88 | 0.887 | 0.406 | 0.378 | 0.238 | 0.255 | 0.295 | 0.254 | 0.295 |
| NCI-H647 | 0.244 | 0.124 | 0.199 | 0.217 | 0.14 | 0.483 | 0.643 | 0.541 | 0.663 | 0.615 | 0.99 | 0.995 | 1.11 | 0.811 | 0.345 | 0.463 | 0.363 | 0.361 | 0.29 |
| NCI-H23 | 0.227 | 0.209 | 0.219 | 0.226 | 0.231 | 0.565 | 0.87 | 0.905 | 0.798 | 0.783 | 1.03 | 1.02 | 1.31 | 0.985 | 0.42 | 0.531 | 0.614 | 0.594 | 0.586 |
| LCLC-97TM1 | 0.817 | 0.839 | 0.831 | 0.925 | 0.736 | 0.242 | 0.419 | 0.389 | 0.43 | 0.452 | – | 1 | – | 0.786 | – | 0.202 | 0.212 | 0.205 | 0.264 |
| EPLC-272H | – | 0.281 | 0.366 | 0.344 | 0.52 | – | 0.311 | 0.308 | 0.347 | 0.392 | 0.917 | 1.05 | 0.957 | 0.654 | – | 0.366 | 0.304 | 0.334 | 0.409 |
| NCI-H1915 | 0.871 | 0.805 | 0.889 | 0.701 | 0.699 | 0.402 | 0.364 | 0.367 | 0.36 | 0.343 | 0.908 | 0.95 | 0.986 | 1.02 | 0.508 | 0.525 | 0.524 | 0.541 | 0.536 |
| NCI-H3122 | 0.0969 | 0.0909 | 0.106 | 0.0886 | 0.0721 | 0.417 | 0.388 | 0.345 | 0.36 | 0.376 | 0.993 | 1 | 1.01 | 1.07 | 0.194 | 0.175 | 0.217 | 0.189 | 0.241 |
| NCI-H358 | 0.398 | 0.374 | 0.284 | 0.337 | 0.441 | 0.388 | 0.384 | 0.37 | – | 0.548 | 0.468 | 0.431 | 0.393 | 0.378 | 0.134 | 0.141 | 0.121 | 0.112 | 0.122 |
| NCI-H1793 | – | 0.235 | 0.198 | 0.186 | 0.235 | – | 0.419 | 0.394 | 0.425 | 0.421 | 0.645 | 0.786 | 0.645 | 0.459 | – | 0.352 | 0.3 | 0.341 | 0.399 |
